The record followed here is paper PMC5218480 (PLoS ONE, 2017).

The structures appear in SMILES notation.

The subject of the assay is MV-4-11 cells. The assay is described as follows: Gene expression microarray analysis (Affymetrix PrimeView) and GSEA. It counts as cell-based, human. Also noted: RFU PODN (11730768_x_at) / Fold change /veh PODN (11730768_x_at) / RFU LINC00158 (11744669_a_at) / Fold change /veh LINC00158 (11744669_a_at) / RFU DUSP10 (11751237_a_at) / Fold change /veh DUSP10 (11751237_a_at) / RFU ID3 (11757404_x_at) / Fold change /veh ID3 (11757404_x_at) / RFU PLEKHG5 (11737974_s_at) / Fold change /veh PLEKHG5 (11737974_s_at) / RFU LRRC4B (11730491_at) / Fold change /veh LRRC4B (11730491_at) / RFU GIMAP4 (11747438_a_at) / Fold change /veh GIMAP4 (11747438_a_at) / RFU KRT8 (11758183_x_at) / Fold change /veh KRT8 (11758183_x_at) / RFU CNN1 (11734310_a_at) / Fold change /veh CNN1 (11734310_a_at) / RFU VPS37D (11726825_at) / Fold change /veh VPS37D (11726825_at) / RFU C10orf10 (11716522_x_at) / Fold change /veh C10orf10 (11716522_x_at) / RFU KIR2DL2 /// KIR2DL4 /// KIR2DL5A /// KIR2DL5B /// KIR2DS1 /// KIR2DS2 /// KIR2DS3 /// KIR2DS4 /// KIR3DL3 /// KIR3DL3 /// KIR3DS1 (11738374_at) / Fold change /veh KIR2DL2 /// KIR2DL4 /// KIR2DL5A /// KIR2DL5B /// KIR2DS1 /// KIR2DS2 /// KIR2DS3 /// KIR2DS4 /// KIR3DL3 /// KIR3DL3 /// KIR3DS1 (11738374_at) / RFU C1QL1 (11718748_at) / Fold change /veh C1QL1 (11718748_at) / RFU TMPRSS4 (11747572_a_at) / Fold change /veh TMPRSS4 (11747572_a_at) / RFU HAMP (11756126_x_at) / Fold change /veh HAMP (11756126_x_at) / RFU RNFT2 (11725882_a_at) / Fold change /veh RNFT2 (11725882_a_at) / RFU NR4A2 (11747474_a_at) / Fold change /veh NR4A2 (11747474_a_at) / RFU ABCC12 (11746883_a_at) / Fold change /veh ABCC12 (11746883_a_at) / RFU TMEM136 (11760407_x_at) / Fold change /veh TMEM136 (11760407_x_at) / RFU CLDN22 /// WWC2 (11732394_at) / Fold change /veh CLDN22 /// WWC2 (11732394_at) / RFU HLA-DPB1 (11760878_x_at) / Fold change /veh HLA-DPB1 (11760878_x_at) / RFU SPINT1 (11716480_a_at) / Fold change /veh SPINT1 (11716480_a_at) / RFU GAP43 (11754022_s_at) / Fold change /veh GAP43 (11754022_s_at) / RFU A4GNT (11735810_at) / Fold change /veh A4GNT (11735810_at) / RFU PRB3 (11715151_x_at) / Fold change /veh PRB3 (11715151_x_at) / RFU TUBB4B (11761932_at) / Fold change /veh TUBB4B (11761932_at) / RFU CAPN14 (11732068_a_at) / Fold change /veh CAPN14 (11732068_a_at) / RFU TMCC2 (11721928_a_at) / Fold change /veh TMCC2 (11721928_a_at) / RFU IRGQ (11745062_a_at) / Fold change /veh IRGQ (11745062_a_at) / RFU FAM174B (11720279_a_at) / Fold change /veh FAM174B (11720279_a_at) / RFU TMPRSS4 (11748680_a_at) / Fold change /veh TMPRSS4 (11748680_a_at) / RFU FAM212B (11763350_a_at) / Fold change /veh FAM212B (11763350_a_at) / RFU PLEKHG5 (11743358_a_at) / Fold change /veh PLEKHG5 (11743358_a_at) / RFU ZSCAN30 (11745921_a_at) / Fold change /veh ZSCAN30 (11745921_a_at) / RFU CMKLR1 (11741424_a_at) / Fold change /veh CMKLR1 (11741424_a_at) / RFU LOC101060620 /// MAPK8IP1 (11723275_at) / Fold change /veh LOC101060620 /// MAPK8IP1 (11723275_at) / RFU SPTSSB (11747773_x_at) / Fold change /veh SPTSSB (11747773_x_at) / RFU PRSS12 (11739890_at) / Fold change /veh PRSS12 (11739890_at) / RFU BIN1 (11741810_x_at) / Fold change /veh BIN1 (11741810_x_at) / RFU WNT11 (11732464_a_at) / Fold change /veh WNT11 (11732464_a_at) / RFU C10orf10 (11716521_a_at) / Fold change /veh C10orf10 (11716521_a_at) / RFU C5orf56 (11738089_at) / Fold change /veh C5orf56 (11738089_at) / RFU CYB561 (11721691_x_at) / Fold change /veh CYB561 (11721691_x_at) / RFU ANKRD19P (11752326_a_at) / Fold change /veh ANKRD19P (11752326_a_at) / RFU OR2T12 /// OR2T33 /// OR2T8 (11738714_s_at) / Fold change /veh OR2T12 /// OR2T33 /// OR2T8 (11738714_s_at) / RFU VCAN (11748164_a_at) / Fold change /veh VCAN (11748164_a_at) / RFU JSRP1 (11732532_at) / Fold change /veh JSRP1 (11732532_at) / RFU KRTAP10-11 (11738290_x_at) / Fold change /veh KRTAP10-11 (11738290_x_at) / RFU MYO3A (11730013_a_at) / Fold change /veh MYO3A (11730013_a_at) / RFU EBF3 (11725865_a_at) / Fold change /veh EBF3 (11725865_a_at) / RFU CAMK2N1 (11719241_x_at) / Fold change /veh CAMK2N1 (11719241_x_at) / RFU C5orf56 (11738088_a_at) / Fold change /veh C5orf56 (11738088_a_at) / RFU OLFML3 (11715873_a_at) / Fold change /veh OLFML3 (11715873_a_at) / RFU LOC100653217 /// NTM (11731650_a_at) / Fold change /veh LOC100653217 /// NTM (11731650_a_at) / RFU MAPK11 (11762145_a_at) / Fold change /veh MAPK11 (11762145_a_at) / RFU FIZ1 (11724087_x_at) / Fold change /veh FIZ1 (11724087_x_at) / RFU OASL (11726364_x_at) / Fold change /veh OASL (11726364_x_at) / RFU SOX15 (11748057_x_at) / Fold change /veh SOX15 (11748057_x_at) / RFU CD79A (11719716_a_at) / Fold change /veh CD79A (11719716_a_at) / RFU HIST1H1D (11736915_at) / Fold change /veh HIST1H1D (11736915_at) / RFU CASKIN2 (11723855_a_at) / Fold change /veh CASKIN2 (11723855_a_at) / RFU LOC730098 (11760151_x_at) / Fold change /veh LOC730098 (11760151_x_at) / RFU OR4N2 (11742367_at) / Fold change /veh OR4N2 (11742367_at) / RFU PRRT2 (11749266_a_at) / Fold change /veh PRRT2 (11749266_a_at) / RFU SNX32 (11753110_a_at) / Fold change /veh SNX32 (11753110_a_at) / RFU CDHR5 (11726645_a_at) / Fold change /veh CDHR5 (11726645_a_at) / RFU RCAN1 (11760418_a_at) / Fold change /veh RCAN1 (11760418_a_at) / RFU FAM167A (11723789_a_at) / Fold change /veh FAM167A (11723789_a_at) / RFU FAM26E (11764081_at) / Fold change /veh FAM26E (11764081_at) / RFU ISYNA1 (11749810_s_at) / Fold change /veh ISYNA1 (11749810_s_at) / RFU ACY1 (11761880_at) / Fold change /veh ACY1 (11761880_at) / RFU 11764098_at / Fold change /veh 11764098_at / RFU SAMD14 (11745864_x_at) / Fold change /veh SAMD14 (11745864_x_at) / RFU NPB (11741838_a_at) / Fold change /veh NPB (11741838_a_at) / RFU TMPRSS6 (11731388_a_at) / Fold change /veh TMPRSS6 (11731388_a_at) / RFU KRTAP10-2 (11738614_at) / Fold change /veh KRTAP10-2 (11738614_at) / RFU ARHGAP8 /// PRR5-ARHGAP8 (11727945_x_at) / Fold change /veh ARHGAP8 /// PRR5-ARHGAP8 (11727945_x_at) / RFU KRTAP5-7 /// NADSYN1 (11734609_at) / Fold change /veh KRTAP5-7 /// NADSYN1 (11734609_at) / RFU RASL12 (11751679_a_at) / Fold change /veh RASL12 (11751679_a_at) / RFU CDKN2B (11736163_a_at) / Fold change /veh CDKN2B (11736163_a_at) / RFU PRF1 (11729649_at) / Fold change /veh PRF1 (11729649_at) / RFU, ZNF638 /// ZNF638-IT1 / Fold change vs veh, ZNF638 /// ZNF638-IT1 / RFU, PANK3 / Fold change vs veh, PANK3 / RFU, SH3YL1 / Fold change vs veh, SH3YL1 / RFU, ZEB2 / Fold change vs veh, ZEB2 / RFU, NRIP1 / Fold change vs veh, NRIP1 / RFU, PTTG1IP / Fold change vs veh, PTTG1IP / RFU, CAPN2 / Fold change vs veh, CAPN2 / RFU, MED14 / Fold change vs veh, MED14 / RFU, SNORA58 / Fold change vs veh, SNORA58 / RFU, C1orf63 / Fold change vs veh, C1orf63 / RFU, LRRFIP1 / Fold change vs veh, LRRFIP1 / RFU, NDUFAF7 / Fold change vs veh, NDUFAF7 / RFU, SLC12A2 / Fold change vs veh, SLC12A2 / RFU, IBTK / Fold change vs veh, IBTK / RFU, ESF1 / Fold change vs veh, ESF1 / Fold change vs veh, TMEM50B / RFU, TAOK1 / Fold change vs veh, TAOK1 / RFU, ACBD3 / Fold change vs veh, ACBD3 / RFU, TMA16 / Fold change vs veh, TMA16 / RFU, RWDD3 / Fold change vs veh, RWDD3 / RFU, BCAT1 / Fold change vs veh, BCAT1 / RFU, EDEM3 / Fold change vs veh, EDEM3 / RFU, TMEM33 / Fold change vs veh, TMEM33 / RFU, WDR75 / Fold change vs veh, WDR75 / RFU, AHCTF1 / Fold change vs veh, AHCTF1 / RFU, TFRC / Fold change vs veh, TFRC / RFU, ZDHHC17 / Fold change vs veh, ZDHHC17 / RFU, NOM1 / Fold change vs veh, NOM1 / RFU, ARL8B / Fold change vs veh, ARL8B / RFU, ZBTB11 / Fold change vs veh, ZBTB11 / RFU, TAMM41 / Fold change vs veh, TAMM41 / RFU, KIAA1704 /// LOC100996395 / Fold change vs veh, KIAA1704 /// LOC100996395 / RFU, ING1 / Fold change vs veh, ING1 / RFU, TRMT61B / Fold change vs veh, TRMT61B / RFU, FUBP3 / Fold change vs veh, FUBP3 / RFU, TP53 / Fold change vs veh, TP53 / RFU, TNKS2 / Fold change vs veh, TNKS2 / RFU, ZFP14 / Fold change vs veh, ZFP14 / RFU, ACTR2 / Fold change vs veh, ACTR2 / RFU, PPP3R1 / Fold change vs veh, PPP3R1 / RFU, PIK3R1 / Fold change vs veh, PIK3R1 / RFU, HNRNPA1 / Fold change vs veh, HNRNPA1 / RFU, RNF170 / Fold change vs veh, RNF170 / RFU, ZNF28 / Fold change vs veh, ZNF28 / RFU, RNGTT / Fold change vs veh, RNGTT / RFU, OGT / Fold change vs veh, OGT / RFU, BRD1 / Fold change vs veh, BRD1 / RFU, MARS / Fold change vs veh, MARS / RFU, ZNF655 / Fold change vs veh, ZNF655 / RFU, FAHD1 / Fold change vs veh, FAHD1 / RFU, BDP1 / Fold change vs veh, BDP1 / RFU, LRRCC1 / Fold change vs veh, LRRCC1 / RFU, ARID1A / Fold change vs veh, ARID1A / RFU, ZNF146 / Fold change vs veh, ZNF146 / RFU, ZNF330 / Fold change vs veh, ZNF330 / RFU, GPN3 / Fold change vs veh, GPN3 / RFU, C9orf123 / Fold change vs veh, C9orf123 / RFU, N4BP2L2 / Fold change vs veh, N4BP2L2 / RFU, ARFIP1 / Fold change vs veh, ARFIP1 / RFU, FAM179B / Fold change vs veh, FAM179B / RFU, BCL10 / Fold change vs veh, BCL10 / RFU, UHRF1BP1L / Fold change vs veh, UHRF1BP1L / RFU, BET1 / Fold change vs veh, BET1 / RFU, CNOT2 / Fold change vs veh, CNOT2 / RFU, ZNF268 / Fold change vs veh, ZNF268 / Fold change vs veh, ZNF507 / RFU, DGCR2 / Fold change vs veh, DGCR2 / RFU, WDSUB1 / Fold change vs veh, WDSUB1 / Fold change vs veh, HSP90B1 /// MIR3652 / RFU, ADSS / Fold change vs veh, ADSS / RFU, GK / Fold change vs veh, GK / RFU, ZNF148 / Fold change vs veh, ZNF148 / RFU, TAF9 / Fold change vs veh, TAF9 / RFU, SLC1A5 / Fold change vs veh, SLC1A5 / RFU, SLMO2 / Fold change vs veh, SLMO2 / RFU, ABCC4 / Fold change vs veh, ABCC4 / RFU, LOC101060439 /// RAP1B / Fold change vs veh, LOC101060439 /// RAP1B / RFU, RFX7 / Fold change vs veh, RFX7 / RFU, GTPBP10 / Fold change vs veh, GTPBP10 / RFU, CNEP1R1 / Fold change vs veh, CNEP1R1 / RFU, BIVM-ERCC5 /// ERCC5 / Fold change vs veh, BIVM-ERCC5 /// ERCC5 / RFU, ILF3 / Fold change vs veh, ILF3 / RFU 11762660_at / Fold change /veh 11762660_at / RFU VCAN (11757783_s_at) / Fold change /veh VCAN (11757783_s_at) / RFU DDX43 (11728927_at) / Fold change /veh DDX43 (11728927_at) / RFU KRT8 (11758188_x_at) / Fold change /veh KRT8 (11758188_x_at) / RFU NKD1 (11759106_at) / Fold change /veh NKD1 (11759106_at) / RFU SRD5A1 (11742802_a_at) / Fold change /veh SRD5A1 (11742802_a_at) / RFU TPSAB1 /// TPSB2 (11721975_s_at) / Fold change /veh TPSAB1 /// TPSB2 (11721975_s_at) / RFU GSTM3 (11746129_a_at) / Fold change /veh GSTM3 (11746129_a_at) / RFU IL23R (11737362_x_at) / Fold change /veh IL23R (11737362_x_at) / RFU TMEM51 (11727254_a_at) / Fold change /veh TMEM51 (11727254_a_at) / RFU PIWIL2 (11732686_x_at) / Fold change /veh PIWIL2 (11732686_x_at) / RFU ORM1 (11744905_x_at) / Fold change /veh ORM1 (11744905_x_at) / RFU CCDC152 (11743942_at) / Fold change /veh CCDC152 (11743942_at) / RFU ECM1 (11717891_a_at) / Fold change /veh ECM1 (11717891_a_at) / RFU IL23R (11748794_a_at) / Fold change /veh IL23R (11748794_a_at) / RFU TNFAIP8L3 (11732012_x_at) / Fold change /veh TNFAIP8L3 (11732012_x_at) / RFU MBOAT4 (11741988_at) / Fold change /veh MBOAT4 (11741988_at) / RFU 11764193_at / Fold change /veh 11764193_at / RFU TMEM53 (11763286_at) / Fold change /veh TMEM53 (11763286_at) / RFU MAGEB2 (11727129_at) / Fold change /veh MAGEB2 (11727129_at) / RFU TMEM200A (11744735_a_at) / Fold change /veh TMEM200A (11744735_a_at) / RFU CCDC152 (11751479_a_at) / Fold change /veh CCDC152 (11751479_a_at) / RFU FAM211A (11726209_a_at) / Fold change /veh FAM211A (11726209_a_at) / RFU RGS16 (11746705_a_at) / Fold change /veh RGS16 (11746705_a_at) / RFU VCAN (11755009_s_at) / Fold change /veh VCAN (11755009_s_at) / RFU RHOB (11743442_s_at) / Fold change /veh RHOB (11743442_s_at) / RFU RGS16 (11720943_a_at) / Fold change /veh RGS16 (11720943_a_at) / RFU RGS16 (11720944_at) / Fold change /veh RGS16 (11720944_at) / RFU, VPS4B / Fold change vs veh, VPS4B / RFU, CREB1 / Fold change vs veh, CREB1 / RFU, DNAJC13 / Fold change vs veh, DNAJC13 / RFU, GNAQ / Fold change vs veh, GNAQ / RFU, CDK5R1 / Fold change vs veh, CDK5R1 / RFU, ZRANB3 / Fold change vs veh, ZRANB3 / RFU, CUL4A / Fold change vs veh, CUL4A / RFU, CCNY / Fold change vs veh, CCNY / RFU, UFL1 / Fold change vs veh, UFL1 / RFU, COG3 / Fold change vs veh, COG3 / RFU, DIAPH2 / Fold change vs veh, DIAPH2 / RFU, SKA2 / Fold change vs veh, SKA2 / RFU, AFF3 / Fold change vs veh, AFF3 / RFU, LMF1 / Fold change vs veh, LMF1 / RFU, IPO11 / Fold change vs veh, IPO11 / RFU, DFFB / Fold change vs veh, DFFB / RFU, FOXP1 / Fold change vs veh, FOXP1 / RFU, CARD8 / Fold change vs veh, CARD8 / RFU, STRN3 / Fold change vs veh, STRN3 / RFU, ADK / Fold change vs veh, ADK / RFU, RASSF2 / Fold change vs veh, RASSF2 / RFU, WIPF1 / Fold change vs veh, WIPF1 / RFU, LARP1B / Fold change vs veh, LARP1B / RFU, RASA1 / Fold change vs veh, RASA1 / RFU, RB1 / Fold change vs veh, RB1 / RFU, PPFIA1 / Fold change vs veh, PPFIA1 / RFU, MAT2A / Fold change vs veh, MAT2A / RFU, CCT5 / Fold change vs veh, CCT5 / RFU, WDR92 / Fold change vs veh, WDR92 / RFU, CUX1 / Fold change vs veh, CUX1 / RFU, TTC7A / Fold change vs veh, TTC7A / RFU, TMEM135 / Fold change vs veh, TMEM135 / RFU, DEPTOR / Fold change vs veh, DEPTOR / RFU, CPM / Fold change vs veh, CPM / RFU, DNAJB6 / Fold change vs veh, DNAJB6 / RFU, CACNA2D3 / Fold change vs veh, CACNA2D3 / RFU, DTX4 / Fold change vs veh, DTX4 / RFU, TFCP2 / Fold change vs veh, TFCP2 / RFU, GMCL1 /// GMCL1P1 / Fold change vs veh, GMCL1 /// GMCL1P1 / RFU, AEBP2 / Fold change vs veh, AEBP2 / RFU, SNHG1 /// SNORD22 /// SNORD25 /// SNORD26 /// SNORD27 /// SNORD28 /// SNORD29 /// SNORD31 / Fold change vs veh, SNHG1 /// SNORD22 /// SNORD25 /// SNORD26 /// SNORD27 /// SNORD28 /// SNORD29 /// SNORD31 / Fold change (Aza/veh), C12orf56 (ProbeSet 11735607_a_at) / Fold change (ACY-1035/veh), C12orf56 (ProbeSet 11735607_a_at) / Fold change (Aza/veh), FGFR1OP (ProbeSet 11751329_s_at) / Fold change (ACY-1035/veh), FGFR1OP (ProbeSet 11751329_s_at) / Fold change (Aza/veh), VPS36 (ProbeSet 11739960_a_at) / Fold change (ACY-1035/veh), VPS36 (ProbeSet 11739960_a_at) / RFU SYPL1 (11715823_x_at) / Fold change /veh SYPL1 (11715823_x_at) / RFU IGFBP7 (11715501_s_at) / Fold change /veh IGFBP7 (11715501_s_at) / RFU REEP3 (11722064_at) / Fold change /veh REEP3 (11722064_at) / RFU IGLL1 (11728026_x_at) / Fold change /veh IGLL1 (11728026_x_at): dose or concentration left out as unconfirmed. The following applies: MV-4-11 cells, 48 hours.

On to `Nc1ccc(-c2cccs2)cc1NC(=O)c1ccc2c(c1)cc(C1CC1)n2CCN1CCOCC1` [ACY-1035], for which the “RFU EBF3 (11725865_a_at)” value came to 63.04 RFU.
